# Source: PubChem BioAssay AID2060498 (Molecular Pharmacology Branch, DTP, NCI, 2025)
# Tested on: 171881-019-R-J1-PDC tumor spheroids, viability
# Experiment: Anticancer human tumor 171881-019-R-J1-PDC patient-derived invasive breast carcinoma cell line growth inhibition [GQUAD]
# Settings: spheroids with HUVEC and MSC; for IC50: curve of first compound; for viability, T/C: stronger effect = lower value
# In short: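 Viability of tumor cells grown as complex spheroids with endothelial and stromal cells, exposed to drug combinations. Top concentration at or near clinical Cmax (else 10 microM), diluted in half-log increments.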
# [1] = second compound 0.0316 µM, first compound 0.0316 µM
# [2] = second compound 0.0316 µM, first compound 0.1 µM
# [3] = second compound 0.0316 µM, first compound 0.316 µM
# [4] = second compound 0.0316 µM, first compound 1 µM
# [5] = second compound 0.0316 µM, first compound 3.16 µM
# [6] = second compound 0.0316 µM, first compound 10 µM
# [7] = second compound 0.1 µM, first compound 0.0316 µM
# [8] = second compound 0.1 µM, first compound 0.1 µM
# [9] = second compound 0.1 µM, first compound 0.316 µM
# [10] = second compound 0.1 µM, first compound 1 µM
# [11] = second compound 0.1 µM, first compound 3.16 µM
# [12] = second compound 0.1 µM, first compound 10 µM
# [13] = second compound 0.316 µM, first compound 0.0316 µM
# [14] = second compound 0.316 µM, first compound 0.1 µM
# [15] = second compound 0.316 µM, first compound 0.316 µM
# [16] = second compound 0.316 µM, first compound 1 µM
# [17] = second compound 0.316 µM, first compound 3.16 µM
# [18] = second compound 0.316 µM, first compound 10 µM
# [19] = second compound 1 µM, first compound 0.0316 µM
# [20] = second compound 1 µM, first compound 0.1 µM
# [21] = second compound 1 µM, first compound 0.316 µM
# [22] = second compound 1 µM, first compound 1 µM
# [23] = second compound 1 µM, first compound 3.16 µM
# [24] = second compound 1 µM, first compound 10 µM
# [25] = second compound 3.16 µM, first compound 0.0316 µM
# [26] = second compound 3.16 µM, first compound 0.1 µM
# [27] = second compound 3.16 µM, first compound 0.316 µM
# [28] = second compound 3.16 µM, first compound 1 µM
# [29] = second compound 3.16 µM, first compound 3.16 µM
# [30] = second compound 3.16 µM, first compound 10 µM
# [31] = second compound 10 µM, first compound 0.0316 µM
# [32] = second compound 10 µM, first compound 0.1 µM
# [33] = second compound 10 µM, first compound 0.316 µM
# [34] = second compound 10 µM, first compound 1 µM
# [35] = second compound 10 µM, first compound 3.16 µM
# [36] = second compound 10 µM, first compound 10 µM
# 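Throughout, for viability, T/C: 100% = DMSO vehicle control viability.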
smiles,measurement,setting,value
CC1COCCN1c1cc(C2(S(C)(=N)=O)CC2)nc(-c2ccnc3[nH]ccc23)n1 (stereo not drawn) + Cc1[nH]c2ccc(F)cc2c1-c1nc2c3cccnc3c3ncccc3c2[nH]1,IC50,second compound 0.0316 µM,1170 nM
same,IC50,second compound 0.1 µM,1130 nM
same,IC50,second compound 0.316 µM,1130 nM
same,IC50,second compound 1 µM,749 nM
same,IC50,second compound 3.16 µM,< 31.6 nM
same,IC50,second compound 10 µM,< 31.6 nM
same,"viability, T/C",[1],97.5%
same,"viability, T/C",[2],97%
same,"viability, T/C",[3],87.4%
same,"viability, T/C",[4],55.4%
same,"viability, T/C",[5],18.6%
same,"viability, T/C",[6],9.09%
same,"viability, T/C",[7],103%
same,"viability, T/C",[8],100%
same,"viability, T/C",[9],87.7%
same,"viability, T/C",[10],53.6%
same,"viability, T/C",[11],21.1%
same,"viability, T/C",[12],10.5%
same,"viability, T/C",[13],97.2%
same,"viability, T/C",[14],75.4%
same,"viability, T/C",[15],86.2%
same,"viability, T/C",[16],51.6%
same,"viability, T/C",[17],21.9%
same,"viability, T/C",[18],10.2%
same,"viability, T/C",[19],78.2%
same,"viability, T/C",[20],76.6%
same,"viability, T/C",[21],75.6%
same,"viability, T/C",[22],41%
same,"viability, T/C",[23],18.9%
same,"viability, T/C",[24],9.88%
same,"viability, T/C",[25],21.5%
same,"viability, T/C",[26],15.3%
same,"viability, T/C",[27],17.2%
same,"viability, T/C",[28],13.9%
same,"viability, T/C",[29],10.2%
same,"viability, T/C",[30],6.81%
same,"viability, T/C",[31],46%
same,"viability, T/C",[32],49.4%
same,"viability, T/C",[33],36.5%
same,"viability, T/C",[34],22%
same,"viability, T/C",[35],14.5%
same,"viability, T/C",[36],8.3%
CC(C)n1c(=O)n(C)c2cnc3cc(F)c(-c4ccc(OCCCN5CCCCC5)nc4)cc3c21 + CN(C)c1ccc(Nc2c3ccc(NC(=O)CCN4CCCC4)cc3nc3cc(NC(=O)CCN4CCCC4)ccc23)cc1,IC50,second compound 0.0316 µM,2410 nM
same,IC50,second compound 0.1 µM,2210 nM
same,IC50,second compound 0.316 µM,670 nM
same,IC50,second compound 1 µM,< 31.6 nM
same,IC50,second compound 3.16 µM,< 31.6 nM
same,IC50,second compound 10 µM,< 31.6 nM
same,"viability, T/C",[1],95.7%
same,"viability, T/C",[2],100%
same,"viability, T/C",[3],88.1%
same,"viability, T/C",[4],80.4%
same,"viability, T/C",[5],40.4%
same,"viability, T/C",[6],12.9%
same,"viability, T/C",[7],93%
same,"viability, T/C",[8],108%
same,"viability, T/C",[9],92%
same,"viability, T/C",[10],84.9%
same,"viability, T/C",[11],34.3%
same,"viability, T/C",[12],9.41%
same,"viability, T/C",[13],82.2%
same,"viability, T/C",[14],79.6%
same,"viability, T/C",[15],69.3%
same,"viability, T/C",[16],37.6%
same,"viability, T/C",[17],20.3%
same,"viability, T/C",[18],4.16%
same,"viability, T/C",[19],18.5%
same,"viability, T/C",[20],16.8%
same,"viability, T/C",[21],19.4%
same,"viability, T/C",[22],8.58%
same,"viability, T/C",[23],6.36%
same,"viability, T/C",[24],1.3%
same,"viability, T/C",[25],1.45%
same,"viability, T/C",[26],1.78%
same,"viability, T/C",[27],1.74%
same,"viability, T/C",[28],1.06%
same,"viability, T/C",[29],1.03%
same,"viability, T/C",[30],0.15%
same,"viability, T/C",[31],0.27%
same,"viability, T/C",[32],0.4%
same,"viability, T/C",[33],0.34%
same,"viability, T/C",[34],0.37%
same,"viability, T/C",[35],0.25%
same,"viability, T/C",[36],0.28%
Nc1ccn(C2OC(CO)C(O)C2(F)F)c(=O)n1 (stereo not drawn) + Cc1cnc(CNC(=O)c2c(=O)c3ccc(N4CCCN(C)CC4)nc3n3c2sc2ccccc23)cn1,IC50,second compound 0.0316 µM,< 31.6 nM
same,IC50,second compound 0.1 µM,< 31.6 nM
same,IC50,second compound 0.316 µM,< 31.6 nM
same,IC50,second compound 1 µM,< 31.6 nM
same,IC50,second compound 3.16 µM,< 31.6 nM
same,IC50,second compound 10 µM,< 31.6 nM
same,"viability, T/C",[1],27.8%
same,"viability, T/C",[2],29.9%
same,"viability, T/C",[3],39.4%
same,"viability, T/C",[4],38%
same,"viability, T/C",[5],33.7%
same,"viability, T/C",[6],31.2%
same,"viability, T/C",[7],29.8%
same,"viability, T/C",[8],31.9%
same,"viability, T/C",[9],37.1%
same,"viability, T/C",[10],41.4%
same,"viability, T/C",[11],37%
same,"viability, T/C",[12],33.8%
same,"viability, T/C",[13],31.5%
same,"viability, T/C",[14],36.2%
same,"viability, T/C",[15],44%
same,"viability, T/C",[16],37.9%
same,"viability, T/C",[17],39.1%
same,"viability, T/C",[18],34.7%
same,"viability, T/C",[19],35%
same,"viability, T/C",[20],35.6%
same,"viability, T/C",[21],42.7%
same,"viability, T/C",[22],41.2%
same,"viability, T/C",[23],44.2%
same,"viability, T/C",[24],37.3%
same,"viability, T/C",[25],36.2%
same,"viability, T/C",[26],38.6%
same,"viability, T/C",[27],43.8%
same,"viability, T/C",[28],43.3%
same,"viability, T/C",[29],44.9%
same,"viability, T/C",[30],40%
same,"viability, T/C",[31],33.2%
same,"viability, T/C",[32],37.3%
same,"viability, T/C",[33],39.1%
same,"viability, T/C",[34],45.6%
same,"viability, T/C",[35],46%
same,"viability, T/C",[36],40.8%
C=CC(=O)N1CCN(c2nc(=O)n(-c3c(C)ccnc3C(C)C)c3nc(-c4c(O)cccc4F)c(F)cc23)C(C)C1 (stereo not drawn) + CN(C)c1ccc(Nc2c3ccc(NC(=O)CCN4CCCC4)cc3nc3cc(NC(=O)CCN4CCCC4)ccc23)cc1,IC50,second compound 0.0316 µM,> 10000 nM
same,IC50,second compound 0.1 µM,> 10000 nM
same,IC50,second compound 0.316 µM,7360 nM
same,IC50,second compound 1 µM,< 31.6 nM
same,IC50,second compound 3.16 µM,< 31.6 nM
same,IC50,second compound 10 µM,< 31.6 nM
same,"viability, T/C",[1],98.3%
same,"viability, T/C",[2],104%
same,"viability, T/C",[3],102%
same,"viability, T/C",[4],117%
same,"viability, T/C",[5],99.3%
same,"viability, T/C",[6],53.5%
same,"viability, T/C",[7],94.8%
same,"viability, T/C",[8],115%
same,"viability, T/C",[9],111%
same,"viability, T/C",[10],119%
same,"viability, T/C",[11],96.9%
same,"viability, T/C",[12],59.3%
same,"viability, T/C",[13],79.3%
same,"viability, T/C",[14],75.8%
same,"viability, T/C",[15],69.8%
same,"viability, T/C",[16],70%
same,"viability, T/C",[17],70.6%
same,"viability, T/C",[18],42.9%
same,"viability, T/C",[19],19%
same,"viability, T/C",[20],16%
same,"viability, T/C",[21],18.6%
same,"viability, T/C",[22],17.1%
same,"viability, T/C",[23],15.3%
same,"viability, T/C",[24],10.2%
same,"viability, T/C",[25],1.61%
same,"viability, T/C",[26],1.65%
same,"viability, T/C",[27],1.29%
same,"viability, T/C",[28],1.13%
same,"viability, T/C",[29],2.03%
same,"viability, T/C",[30],1.73%
same,"viability, T/C",[31],0.27%
same,"viability, T/C",[32],0.5%
same,"viability, T/C",[33],0.42%
same,"viability, T/C",[34],0.9%
same,"viability, T/C",[35],0.45%
same,"viability, T/C",[36],0.56%
